Source: US20050112573A1, “Method of detecting toxic substance” (priority 2001, published 2005)

System: yeast genes (level of expressed mRNA)
Assay: DNA chip analysis of expressed mRNA of yeast genes after 2 h culture with a toxic chemical substance
Assay type: cell-based, Saccharomyces cerevisiae S288C
Conditions: for The level of expressed mRNA in the presence of chemical substance/ (ratio to absence of chemical substance): stress protein genes, DNA chip
Description: Yeast (Saccharomyces cerevtisiae S288C (α SUC2mal mel gap2 CUP1)) were cultured at 25° C. on YPD medium (yeast extract 1%, polypepton 2%, glucose 2%). One of toxic chemical substances was added to the cell at logarithmic growth phase, and the cell was further cultured for two hours. Cell was cultured without any chemical substance in the same condition, and was used as control. Concentrations of the chemical substances were defined to inhibit the growth of the yeast but not lead to death.
After the completion of cultivation, the culture was centrifuged to collect the cells. To the cells, sodium acetate buffer (50 mM sodium acetate, 10 mM EDTA, 1% SDS) was added, and the mixture was shaken at 65° C. for five minutes, followed by returning to room temperature, and obtaining the supernatant, which procedure was repeated two times. To the supernatant, ½ amount of a solution of phenol/chloroform was added, and the mixture was centrifuged to give a supernatant, which was added with an equal amount of chloroform, and the mixture was centrifuged to give a supernatant. To the supernatant, an equal amount of isopropanol containing 0.3 M sodium acetate was added, and the mixture was allowed to stand at room temperature for 30 minutes, after which the mixture was centrifuged to give a sediment of the whole RNAs. Seventy % ethanol was added to the sediment, and the mixture was again centrifuged to give a sediment, which was then dried and dissolved in water. mRNA was isolated from the whole RNAs as followings. In view of the fact that a poly A chain is attached to the 3′ terminus of mRNA, a polynucleotide having a poly T structure which was immobilized on the surface of latex beads was used to trap the mRNA, and then the mRNA was washed and eluted with spine column (Oligotex-dT30<Super>mRNA Purification Kit, Takara). Reverse transcription of the mRNA was conducted with a reverse transcriptase (Super Script II Reverse Transcriptase; catalogue No. 18064-014, GibcoBRL) using fluorescence-labeled nucleotides to give cDNAs that were introduced with Cy3-dUTP or Cy5-dUTP during the reverse transcription.
The labeled cDNAs were dissolved in TE buffer (10 mM Tris-HCl/1 mM EDTA, pH8.0), and the solution was dropped on the DNA chip containing the whole genes of yeast (DNA Chip Research Inc. Japan) so that the cDNAs were hybridized on the DNA chip at 65° C. for over 12 hours. The fluoresces intensity of the DNA chip was read with a scanner, and the ratio relative to the fluorescence intensity resulting from the absence of chemical substance was estimated as the following, which is shown in Tables 1 to 9: [formula]
In the Tables, “Intensity” indicated in the rightmost column is a value of the level of expressed mRNA of each gene in control cells as divided by the average level of the expressions of the whole genes.

In the case of `C=CC=O` [(14), acrolein], the “The level of expressed mRNA in the presence of chemical substance/The level of expressed mRNA in the absence of chemical substance” value (yeast gene YIL140W) was 0.9, the “The level of expressed mRNA in the presence of chemical substance/ (in its absence), gene YJL070C” value (yeast gene YJL070C, ratio of DNA chip fluorescence intensity to that without chemical substance) was 1.3 and the “The level of expressed mRNA in the presence of chemical substance/The level of expressed mRNA in the absence of chemical substance” value (yeast gene YJL073W) was 1.1. For the same compound, the “The level of expressed mRNA in the presence of chemical substance/The level of expressed mRNA in the absence of chemical substance” value (yeast gene YJL089W) was 1.8, the “The level of expressed mRNA in the presence of chemical substance/ (ratio to absence), gene YJL096W” value (yeast gene YJL096W, mitochondria-located protein genes, 2 h culture with chemical) was 2.1 and the “The level of expressed mRNA in the presence of chemical substance/The level of expressed mRNA in the absence of chemical substance” value (yeast gene YJL116C) was 2.6. The “The level of expressed mRNA in the presence of chemical substance/ (ratio to absence of chemical substance)” value (yeast gene YJL158C) was 0.5, the “The level of expressed mRNA in the presence of chemical substance/ (in its absence), gene YJL167W” value (yeast gene YJL167W, ratio of DNA chip fluorescence intensity to that without chemical substance) was 0.9 and the “The level of expressed mRNA in the presence of chemical substance/ (ratio to absence), gene YJL180C” value (yeast gene YJL180C, mitochondria-located protein genes, 2 h culture with chemical) was 1.4. For the same compound, the “The level of expressed mRNA in the presence of chemical substance/ (in its absence), gene YJL216C” value (yeast gene YJL216C, ratio of DNA chip fluorescence intensity to that without chemical substance) was 1.1, the “The level of expressed mRNA in the presence of chemical substance/The level of expressed mRNA in the absence of chemical substance” value (yeast gene YJR004C) was 0.7 and the “The level of expressed mRNA in the presence of chemical substance/The level of expressed mRNA in the absence of chemical substance” value (yeast gene YJR086W) was 2.2. For the same compound, the “The level of expressed mRNA in the presence of chemical substance/ (ratio to absence of chemical substance)” value (yeast gene YJR090C) was 1.0, the “The level of expressed mRNA in the presence of chemical substance/The level of expressed mRNA in the absence of chemical substance” value (yeast gene YKL008C) was 0.8 and the “The level of expressed mRNA in the presence of chemical substance/The level of expressed mRNA in the absence of chemical substance” value (yeast gene YKL013C) was 1.4. For the same compound, the “The level of expressed mRNA in the presence of chemical substance/The level of expressed mRNA in the absence of chemical substance” value (yeast gene YKL039W) was 0.8, the “The level of expressed mRNA in the presence of chemical substance/The level of expressed mRNA in the absence of chemical substance” value (yeast gene YKL041W) was 1.3 and the “The level of expressed mRNA in the presence of chemical substance/The level of expressed mRNA in the absence of chemical substance” value (yeast gene YKL096W) was 0.5. For the same compound, the “The level of expressed mRNA in the presence of chemical substance/ (ratio to absence of chemical substance)” value (yeast gene YKL164C) was 0.3, the “The level of expressed mRNA in the presence of chemical substance/The level of expressed mRNA in the absence of chemical substance” value (yeast gene YKL165C) was 0.8 and the “The level of expressed mRNA in the presence of chemical substance/The level of expressed mRNA in the absence of chemical substance” value (yeast gene YKL193C) was 1.2. The “The level of expressed mRNA in the presence of chemical substance/ (in its absence), gene YKR009C” value (yeast gene YKR009C, ratio of DNA chip fluorescence intensity to that without chemical substance) was 1.0, the “The level of expressed mRNA in the presence of chemical substance/ (in its absence), gene YKR034W” value (yeast gene YKR034W, ratio of DNA chip fluorescence intensity to that without chemical substance) was 1.1 and the “The level of expressed mRNA in the presence of chemical substance/ (ratio to absence of chemical substance)” value (yeast gene YKR053C) was 1.3. The “The level of expressed mRNA in the presence of chemical substance/ in its absence, gene YKR058W” value (yeast gene YKR058W, energy system protein genes, 2 h culture with the chemical, ratio to control without chemical) was 1.3, the “The level of expressed mRNA in the presence of chemical substance/ (in its absence), gene YLR006C” value (yeast gene YLR006C, ratio of DNA chip fluorescence intensity to that without chemical substance) was 1.0 and the “The level of expressed mRNA in the presence of chemical substance/ (ratio to absence of chemical substance)” value (yeast gene YLR006C) was 1.0. For the same compound, the “The level of expressed mRNA in the presence of chemical substance/The level of expressed mRNA in the absence of chemical substance” value (yeast gene YLR120C) was 0.8, the “The level of expressed mRNA in the presence of chemical substance/The level of expressed mRNA in the absence of chemical substance” value (yeast gene YLR136C) was 0.7 and the “The level of expressed mRNA in the presence of chemical substance/The level of expressed mRNA in the absence of chemical substance” value (yeast gene YLR178C) was 2.8. For the same compound, the “The level of expressed mRNA in the presence of chemical substance/The level of expressed mRNA in the absence of chemical substance” value (yeast gene YLR250W) was 2.5, the “The level of expressed mRNA in the presence of chemical substance/ in its absence, gene YLR295C” value (yeast gene YLR295C, energy system protein genes, 2 h culture with the chemical, ratio to control without chemical) was 1.2 and the “The level of expressed mRNA in the presence of chemical substance/ (ratio to absence), gene YLR295C” value (yeast gene YLR295C, mitochondria-located protein genes, 2 h culture with chemical) was 1.2. The “The level of expressed mRNA in the presence of chemical substance/The level of expressed mRNA in the absence of chemical substance” value (yeast gene YLR327C) was 1.5, the “The level of expressed mRNA in the presence of chemical substance/ (in its absence), gene YLR351C” value (yeast gene YLR351C, ratio of DNA chip fluorescence intensity to that without chemical substance) was 1.4 and the “The level of expressed mRNA in the presence of chemical substance/The level of expressed mRNA in the absence of chemical substance” value (yeast gene YLR356W) was 2.2. For the same compound, the “The level of expressed mRNA in the presence of chemical substance/The level of expressed mRNA in the absence of chemical substance” value (yeast gene YLR362W) was 1.2, the “The level of expressed mRNA in the presence of chemical substance/ (in its absence), gene YLR375W” value (yeast gene YLR375W, ratio of DNA chip fluorescence intensity to that without chemical substance) was 0.9 and the “The level of expressed mRNA in the presence of chemical substance/The level of expressed mRNA in the absence of chemical substance” value (yeast gene YLR391W) was 0.5. The “The level of expressed mRNA in the presence of chemical substance/The level of expressed mRNA in the absence of chemical substance” value (yeast gene YLR429W) was 0.7, the “The level of expressed mRNA in the presence of chemical substance/ in its absence, gene YML129C” value (yeast gene YML129C, energy system protein genes, 2 h culture with the chemical, ratio to control without chemical) was 1.4 and the “The level of expressed mRNA in the presence of chemical substance/ (ratio to absence), gene YML129C” value (yeast gene YML129C, mitochondria-located protein genes, 2 h culture with chemical) was 1.4. The “The level of expressed mRNA in the presence of chemical substance/The level of expressed mRNA in the absence of chemical substance” value (yeast gene YMR004W) was 2.2, the “The level of expressed mRNA in the presence of chemical substance/ (ratio to absence), gene YMR023C” value (yeast gene YMR023C, mitochondria-located protein genes, 2 h culture with chemical) was 1.6 and the “The level of expressed mRNA in the presence of chemical substance/The level of expressed mRNA in the absence of chemical substance” value (yeast gene YMR094W) was 2.8. For the same compound, the “The level of expressed mRNA in the presence of chemical substance/The level of expressed mRNA in the absence of chemical substance” value (yeast gene YMR104C) was 1.1, the “The level of expressed mRNA in the presence of chemical substance/ (ratio to absence of chemical substance)” value (yeast gene YMR186W) was 0.6 and the “The level of expressed mRNA in the presence of chemical substance/The level of expressed mRNA in the absence of chemical substance” value (yeast gene YMR219W) was 0.5. The “The level of expressed mRNA in the presence of chemical substance/The level of expressed mRNA in the absence of chemical substance” value (yeast gene YMR226C) was 1.6, the “The level of expressed mRNA in the presence of chemical substance/ in its absence, gene YMR267W” value (yeast gene YMR267W, energy system protein genes, 2 h culture with the chemical, ratio to control without chemical) was 1.0 and the “The level of expressed mRNA in the presence of chemical substance/ (ratio to absence), gene YMR267W” value (yeast gene YMR267W, mitochondria-located protein genes, 2 h culture with chemical) was 1.0. The “The level of expressed mRNA in the presence of chemical substance/ in its absence, gene YMR267W” value (yeast gene YMR267W, ratio of DNA chip fluorescence intensity to that without chemical substance) was 1.0, the “The level of expressed mRNA in the presence of chemical substance/The level of expressed mRNA in the absence of chemical substance” value (yeast gene YMR275C) was 0.8 and the “The level of expressed mRNA in the presence of chemical substance/The level of expressed mRNA in the absence of chemical substance” value (yeast gene YMR276W) was 1.2. The “The level of expressed mRNA in the presence of chemical substance/ (in its absence), gene YMR278W” value (yeast gene YMR278W, ratio of DNA chip fluorescence intensity to that without chemical substance) was 0.8, the “The level of expressed mRNA in the presence of chemical substance/ (in its absence), gene YMR293C” value (yeast gene YMR293C, ratio of DNA chip fluorescence intensity to that without chemical substance) was 1.3 and the “The level of expressed mRNA in the presence of chemical substance/The level of expressed mRNA in the absence of chemical substance” value (yeast gene YMR314W) was 1.0.
